Experimental data: US20250197387A1, “BCL-XL DEGRADERS AND USES THEREOF” (Kymera Therapeutics, Inc., priority 2021, published 2025)
Read-outs that look alike come from different tables or passages of the source.

How the values were obtained:
Assay type in all cases: cell-based
BCL-XL = molecular target: T1, BCL-XL (Homo sapiens, UniProt Q07817); assay: Bcl-xL ELISA degradation in MOLT-4 cells, 6 h; details: for DC50: read-out: Bcl-xL ELISA in MOLT-4 degradation 6 h: Mean external-Abs DC50
T1 construct: endogenous in cells; host or cells: MOLT-4
Method: The letter codes for BCL-XL DC50 include: A (<0.01 μM); B (0.01-0.1 μM); C (>[…]); D (>0.5-1.0 μM); and E (>1.0 μM). The letter codes for Dmax % include A (>75%); B (50 to 75%); C (<50%).

MOLT-4 cells = assay: CTG (CellTiter-Glo) cell viability assay, MOLT-4; details: Homo sapiens, 3 day incubation, read-out: CTG Cell Viability Assay - MOLT-4 3 day: Average external-IC50
Summary of the method: (§1)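 IC50 is from a three-parameter logistic fit of CellTiter-Glo luminescence after 3-day treatment of cells seeded at 10,000 per well. Codes: MOLT-4 A <0.1, B 0.1-1.0, C >1.0-3.0, D >3.0 μM; Caki-2 A <0.1, B 0.1-1.0, C >1.0-10.0, D >10.0 μM.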

Caki-2 cells = assay: CTG (CellTiter-Glo) cell viability assay, Caki-2; details: Homo sapiens, 72 h, 3 day incubation, read-out: CTG Chempartner - Caki-2 3 day: Average external-IC50
Summary of the method: as §1

T1 sequence (Q07817 whole entry): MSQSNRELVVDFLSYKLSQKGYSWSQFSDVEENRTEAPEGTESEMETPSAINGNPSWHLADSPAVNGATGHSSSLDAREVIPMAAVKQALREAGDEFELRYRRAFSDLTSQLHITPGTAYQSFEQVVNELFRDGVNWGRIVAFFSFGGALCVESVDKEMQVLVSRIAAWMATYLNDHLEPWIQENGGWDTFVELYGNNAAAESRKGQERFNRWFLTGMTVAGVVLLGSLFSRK

| Dmax (BCL-XL) [%] | DC50 (BCL-XL) [nM] | IC50 (MOLT-4 cells; MOLT-4, 72 h) [nM] | Structure (SMILES) | IC50 (Caki-2 cells) [nM] | IC50 (MOLT-4 cells; 72 h) [nM] |
| --- | --- | --- | --- | --- | --- |
| > 75 | 10 to 100 | < 100 | C#Cc1ccc(CNC(=O)[C@@H]2C[C@@H](O)CN2C(=O)[C@@H](NC(=O)CCN(C)CCS(=O)(=O)NC(=O)c2nc(N(C)c3cc(C)c(Nc4nc5ccccc5s4)nn3)ccc2-c2cnn(CC34CC5CC(CC(C5)C3)C4)c2C)C(C)(C)C)cc1 [I-430] | > 10000 | – |
| > 75 | 100 to 500 | 100 to 1000 | C#Cc1ccc(CNC(=O)[C@@H]2C[C@@H](O)CN2C(=O)[C@@H](NC(=O)C2CN(CCS(=O)(=O)NC(=O)c3nc(N(C)c4cc(C)c(Nc5nc6ccccc6s5)nn4)ccc3-c3cnn(CC45CC6CC(CC(C6)C4)C5)c3C)C2)C(C)(C)C)cc1 [I-433] | > 10000 | – |
| > 75 | 500 to 1000 | 1000 to 3000 | Cc1cc(N(C)c2ccc(-c3cnn(CC4CCCCC4)c3C)c(C(=O)NS(=O)(=O)CCCCCC(=O)N[C@H](C(=O)N3C[C@H](O)C[C@H]3C(=O)N[C@@H](C)c3ccc(-c4scnc4C)cc3)C(C)(C)C)n2)nnc1Nc1nc2cccnc2s1 [I-436] | > 10000 | – |
| > 75 | < 10 | < 100 | C#Cc1ccc([C@H](C)NC(=O)[C@@H]2C[C@@H](O)CN2C(=O)[C@@H](NC(=O)C2CN(c3ccc(S(=O)(=O)NC(=O)c4nc(N(C)c5cc(C)c(Nc6nc7ccccc7s6)nn5)ccc4-c4cnn(CC56CC7CC(CC(C7)C5)C6)c4C)cc3)C2)C(C)(C)C)cc1 [I-438] | > 10000 | – |
| > 75 | 100 to 500 | > 3000 | Cc1cc(N(C)c2ccc(-c3cnn(CC4CCCC4)c3C)c(C(=O)NS(=O)(=O)CCCCCC(=O)N[C@H](C(=O)N3C[C@H](O)C[C@H]3C(=O)N[C@@H](C)c3ccc(-c4scnc4C)cc3)C(C)(C)C)n2)nnc1Nc1nc2ccccc2s1 [I-443] | > 10000 | – |
| > 75 | 10 to 100 | 100 to 1000 | C#Cc1ccc(CNC(=O)[C@@H]2C[C@@H](O)CN2C(=O)[C@@H](NC(=O)CCCCCS(=O)(=O)NC(=O)c2nc(N(C)c3cc(C)c(Nc4nc5cccnc5s4)nn3)ccc2-c2cnn(CC34CC5CC(CC(C5)C3)C4)c2C)C(C)(C)C)cc1 [I-446] | > 10000 | – |
| > 75 | 10 to 100 | 100 to 1000 | C#Cc1ccc([C@H](C)NC(=O)[C@@H]2C[C@@H](O)CN2C(=O)[C@@H](NC(=O)CCCCCS(=O)(=O)NC(=O)c2nc(N(C)c3cc(C)c(Nc4nc5cccnc5s4)nn3)ccc2-c2cnn(CC34CC5CC(CC(C5)C3)C4)c2C)C(C)(C)C)cc1 [I-447] | > 10000 | – |
| > 75 | 10 to 100 | 100 to 1000 | Cc1cc(N(C)c2ccc(-c3cnn(CC45CC6CC(CC(C6)C4)C5)c3C)c(C(=O)NS(=O)(=O)CCCCCC(=O)N[C@H](C(=O)N3C[C@H](O)C[C@H]3C(=O)NCc3ccc(-c4scnc4C)cc3)C(C)(C)C)n2)nnc1Nc1nc2cccnc2s1 [I-451] | > 10000 | – |
| > 75 | 100 to 500 | 1000 to 3000 | Cc1cc(N(C)c2ccc(-c3cnn(CC45CC6CC(CC(C6)C4)C5)c3C)c(C(=O)NS(=O)(=O)CCCC(=O)N[C@H](C(=O)N3C[C@H](O)C[C@H]3C(=O)N[C@@H](C)c3ccc(-c4scnc4C)cc3)C(C)(C)C)n2)nnc1Nc1nc2cccnc2s1 [I-452] | > 10000 | – |
| > 75 | 100 to 500 | > 3000 | C#Cc1ccc(CNC(=O)[C@@H]2C[C@@H](O)CN2C(=O)[C@@H](NC(=O)CCCCS(=O)(=O)NC(=O)c2nc(N(C)c3cc(C)c(Nc4nc5cccnc5s4)nn3)ccc2-c2cnn(CC34CC5CC(CC(C5)C3)C4)c2C)C(C)(C)C)cc1 [I-453] | > 10000 | – |
| > 75 | 10 to 100 | 1000 to 3000 | C#Cc1ccc([C@H](C)NC(=O)[C@@H]2C[C@@H](O)CN2C(=O)[C@@H](NC(=O)CCCCS(=O)(=O)NC(=O)c2nc(N(C)c3cc(C)c(Nc4nc5cccnc5s4)nn3)ccc2-c2cnn(CC34CC5CC(CC(C5)C3)C4)c2C)C(C)(C)C)cc1 [I-454] | > 10000 | – |

Second part, the compound before the results:

| Structure (SMILES) | Dmax (BCL-XL) [%] | DC50 (BCL-XL) [nM] | IC50 (MOLT-4 cells; MOLT-4, 72 h) [nM] | IC50 (Caki-2 cells) [nM] | IC50 (MOLT-4 cells; 72 h) [nM] |
| --- | --- | --- | --- | --- | --- |
| Cc1cc(N(C)c2ccc(-c3cnn(CC45CC6CC(CC(C6)C4)C5)c3C)c(C(=O)NS(=O)(=O)c3ccc(N4CC(C(=O)N[C@H](C(=O)N5C[C@H](O)C[C@H]5C(=O)N[C@@H](C)c5ccc(-c6scnc6C)cc5)C(C)(C)C)C4)cc3)n2)nnc1Nc1nc2ccccc2s1 [I-434] | > 75 | 10 to 100 | < 100 | > 10000 | – |
| Cc1cc(N(C)c2ccc(-c3cnn(CC45CC6CC(CC(C6)C4)C5)c3C)c(C(=O)NS(=O)(=O)c3ccc(N4CC(C(=O)N[C@H](C(=O)N5C[C@H](O)C[C@H]5C(=O)NCc5ccc(-c6scnc6C)cc5)C(C)(C)C)C4)cc3)n2)nnc1Nc1nc2ccccc2s1 [I-437] | > 75 | 10 to 100 | < 100 | > 10000 | – |
| C#Cc1ccc(CNC(=O)[C@@H]2C[C@@H](O)CN2C(=O)[C@@H](NC(=O)C2CN(c3ccc(S(=O)(=O)NC(=O)c4nc(N(C)c5cc(C)c(Nc6nc7ccccc7s6)nn5)ccc4-c4cnn(CC56CC7CC(CC(C7)C5)C6)c4C)cc3)C2)C(C)(C)C)cc1 [I-440] | > 75 | < 10 | < 100 | > 10000 | – |
| Cc1ncsc1-c1ccc([C@H](C)NC(=O)[C@@H]2C[C@@H](O)CN2C(=O)[C@@H](NC(=O)CCCCCS(=O)(=O)NC(=O)c2nc(N3CCc4cccc(C(=O)Nc5nc6ccccc6s5)c4C3)ccc2-c2cnn(CC3CCCC3)c2C)C(C)(C)C)cc1 [I-442] | > 75 | 10 to 100 | < 100 | > 10000 | – |
| C#Cc1ccc(CNC(=O)[C@@H]2C[C@@H](O)CN2C(=O)[C@@H](NC(=O)CCCCCS(=O)(=O)NC(=O)c2nc(N3CCc4cccc(C(=O)Nc5nc6ccccc6s5)c4C3)ccc2-c2cnn(CC3CCCC3)c2C)C(C)(C)C)cc1 [I-444] | > 75 | < 10 | < 100 | > 10000 | – |
| C#Cc1ccc(CNC(=O)[C@@H]2C[C@@H](O)CN2C(=O)[C@@H](NC(=O)CCCCCS(=O)(=O)NC(=O)c2nc(N3CCc4cccc(C(=O)Nc5nc6cccnc6s5)c4C3)ccc2-c2cnn(CC3CCCC3)c2C)C(C)(C)C)cc1 [I-445] | > 75 | 10 to 100 | 100 to 1000 | > 10000 | – |
| Cc1cc(N(C)c2ccc(-c3cnn(CC45CC6CC(CC(C6)C4)C5)c3C)c(C(=O)NS(=O)(=O)CC3CCN(CC(=O)N[C@H](C(=O)N4C[C@H](O)C[C@H]4C(=O)N[C@@H](C)c4ccc(-c5scnc5C)cc4)C(C)(C)C)CC3)n2)nnc1Nc1nc2cccnc2s1 [I-449] | > 75 | 100 to 500 | – | > 10000 | > 3000 |
| Cc1cc(N(C)c2ccc(-c3cnn(CC(C)(C)C)c3C)c(C(=O)NS(=O)(=O)c3ccc(N4CCC(C(=O)N[C@H](C(=O)N5C[C@H](O)C[C@H]5C(=O)N[C@@H](C)c5ccc(-c6scnc6C)cc5)C(C)(C)C)CC4)cc3)n2)nnc1Nc1nc2cccnc2s1 [I-456] | < 50 | > 1000 | > 3000 | > 10000 | – |
| Cc1cc(N(C)c2ccc(-c3cnn(CC4CCCC4)c3C)c(C(=O)NS(=O)(=O)c3ccc(N4CCC(C(=O)N[C@H](C(=O)N5C[C@H](O)C[C@H]5C(=O)N[C@@H](C)c5ccc(-c6scnc6C)cc5)C(C)(C)C)CC4)cc3)n2)nnc1Nc1nc2cccnc2s1 [I-457] | 50 to 75 | 500 to 1000 | 1000 to 3000 | > 10000 | – |
